Source: US9340528B2, “Substituted aminoquinoxalines as tyrosine threonine kinase inhibitors” (BAYER PHARMA AKTIENGESELLSCHAFT, priority 2009, dated 2016)
Each block holds one compound with its values, some of them ahead of it.

Tested on: HeLa human cervical tumor cells (ATCC CCL-2)
Test: Proliferation Assay (crystal violet staining, 4 days)
Type: cell-based
Details: 96 h, 4 days incubation, read-out: EO-PROLIF-HELA
Experimental: Biological Assay: Proliferation Assay
Cultivated HeLa human cervical tumor cells (ATCC CCL-2) were plated at a density of 3000 cells/well in a 96-well multititer plate in 200 μl DMEM/HAMS F12 medium supplemented with 2 mM L-Glutamine and 10% fetal calf serum. After 24 hours, the cells of one plate (zero-point plate) were stained with crystal violet (see below), while the medium of the other plates was replaced by fresh culture medium (200 μl), to which the test substances were added in various concentrations (0 μM, as well as in the range of 0.01-30 μM; the final concentration of the solvent dimethyl sulfoxide was 0.5%). The cells were incubated for 4 days in the presence of test substances. Cell proliferation was determined by staining the cells with crystal violet: the cells were fixed by adding 20 μl/measuring point of an 11% glutaric aldehyde solution for 15 minutes at room temperature. After three washing cycles of the fixed cells with water, the plates were dried at room temperature. The cells were stained by adding 100 μl/measuring point of a 0.1% crystal violet solution (pH 3.0). After three washing cycles of the stained cells with water, the plates were dried at room temperature. The dye was dissolved by adding 100 μl/measuring point of a 10% acetic acid solution. The extinction was determined by photometry at a wavelength of 595 nm. The change of cell number, in percent, was calculated by normalization of the measured values to the extinction values of the zero-point plate (=0%) and the extinction of the untreated (0 μm) cells (=100%). The IC50 values were determined by means of a 4 parameter fit using the company's own software.

Structure (SMILES): Oc1ccc(-c2ccc3ncc(N4CCN(c5cnccn5)CC4)nc3c2)cc1 [Example 3.17, 4-{3-[4-(pyrazin-2-yl)piperazin-1-yl]quinoxalin-6-yl}phenol]
IC50: 3870 nM

Structure (SMILES): Oc1ccc(-c2ccc3ncc(N4CCOCC4)nc3c2)cc1 [Example 3.5, 4-[3-(morpholin-4-yl)quinoxalin-6-yl]phenol]
IC50: 2510 nM

Structure (SMILES): Oc1ccc(-c2ccc3ncc(N4CCN(Cc5cccnc5)CC4)nc3c2)cc1 [Example 3.35, 4-{3-[4-(pyridin-3-ylmethyl)piperazin-1-yl]quinoxalin-6-yl}phenol]
IC50: 8250 nM

Structure (SMILES): CN1CCN(Cc2ccc(NC(=O)Nc3ccc(-c4ccc5ncc(N6CCOCC6)nc5c4)cc3)cc2C(F)(F)F)CC1 [Example 1.71, 1-{4-[(4-methylpiperazin-1-yl)methyl]-3-(trifluoromethyl)phenyl}-3-{4-[3-(morpholin-4-yl)quinoxalin-6-yl]phenyl}urea]
IC50: 889 nM

Structure (SMILES): CNC(=O)c1ccc(-c2ccc3ncc(N4CCOCC4)nc3c2)cc1 [Example 1.47, N-methyl-4-[3-(morpholin-4-yl)quinoxalin-6-yl]benzamide]
IC50: 3000 nM

Structure (SMILES): Oc1ccc(-c2ccc3ncc(N4CCN(c5ccncc5)CC4)nc3c2)cc1 [Example 3.15, 4-{3-[4-(pyridin-4-yl)piperazin-1-yl]quinoxalin-6-yl}phenol]
IC50: 2920 nM

Structure (SMILES): O=C(Nc1ccccc1)c1ccc(-c2ccc3ncc(N4CCCCC4)nc3c2)cc1 [Example 2.90, N-phenyl-4-[3-(piperidin-1-yl)quinoxalin-6-yl]benzamide]
IC50: 3000 nM

Structure (SMILES): Cc1cc(-c2ccc3ncc(N4CCOCC4)nc3c2)cc(C)c1O [Example 1.108, 2,6-dimethyl-4-[3-(morpholin-4-yl)quinoxalin-6-yl]phenol]
IC50: 2320 nM

Structure (SMILES): CC(=O)Nc1ccc(-c2ccc3ncc(N4CCOCC4)nc3c2)cc1 [Example 1.73, N-{4-[3-(morpholin-4-yl)quinoxalin-6-yl]phenyl}acetamide]
IC50: 3000 nM

Structure (SMILES): O=C(Cc1ccccc1)Nc1ccc(-c2ccc3ncc(N4CCOCC4)nc3c2)cc1 [Example 4.3, N-{4-[3-(morpholin-4-yl)quinoxalin-6-yl]phenyl}-2-phenylacetamide]
IC50: 10000 nM

Structure (SMILES): O=C(Cc1cccc(C(F)(F)F)c1)Nc1ccc(-c2ccc3ncc(N4CCOCC4)nc3c2)cc1 [Example 4.13, N-{4-[3-(morpholin-4-yl)quinoxalin-6-yl]phenyl}-2-[3-(trifluoromethyl)phenyl]acetamide]
IC50: 8120 nM

Structure (SMILES): CN1CCN(Cc2ccc(NC(=O)Nc3ccc(-c4ccc5ncc(N6CCCCC6)nc5c4)cc3)cc2C(F)(F)F)CC1 [Example 2.73, 1-{4-[(4-methylpiperazin-1-yl)methyl]-3-(trifluoromethyl)phenyl}-3-{4-[3-(piperidin-1-yl)quinoxalin-6-yl]phenyl}urea]
IC50: 1120 nM

Continued, values first:

IC50: 2840 nM
Structure (SMILES): O=C(Cc1ccccc1F)Nc1ccc(-c2ccc3ncc(N4CCN(c5ccncc5)CC4)nc3c2)cc1 [Example 7.2, 2-(2-fluorophenyl)-N-(4-{3-[4-(pyridin-4-yl)piperazin-1-yl]quinoxalin-6-yl}phenyl)acetamide]

IC50: 2790 nM
Structure (SMILES): O=C(Cc1ccccn1)Nc1ccc(-c2ccc3ncc(N4CCN(c5ccncc5)CC4)nc3c2)cc1 [Example 7.6, 2-(pyridin-2-yl)-N-(4-{3-[4-(pyridin-4-yl)piperazin-1-yl]quinoxalin-6-yl}phenyl)acetamide]

IC50: 10000 nM
Structure (SMILES): O=C(NCc1ccccc1)Nc1ccc(-c2ccc3ncc(N4CCOCC4)nc3c2)cc1 [Example 6.6, 1-benzyl-3-{4-[3-(morpholin-4-yl)quinoxalin-6-yl]phenyl}urea]

IC50: 3000 nM
Structure (SMILES): O=C(Cc1ccccc1F)Nc1ccc(-c2ccc3ncc(N4CCN(Cc5cccnc5)CC4)nc3c2)cc1 [Example 9.2, 2-(2-fluorophenyl)-N-(4-{3-[4-(pyridin-3-ylmethyl)piperazin-1-yl]quinoxalin-6-yl}phenyl)acetamide]

IC50: 2610 nM
Structure (SMILES): O=C(Cc1ccccc1)Nc1ccc(-c2ccc3ncc(N4CCN(c5ccncc5)CC4)nc3c2)cc1 [Example 7.1, 2-phenyl-N-{4-[3-(4-pyridin-4-yl-piperazin-1-yl)-quinoxalin-6-yl]-phenyl}-acetamide]

IC50: 3000 nM
Structure (SMILES): CC(C(=O)Nc1ccc(-c2ccc3ncc(N4CCN(Cc5cccnc5)CC4)nc3c2)cc1)c1ccccc1 (stereo not drawn) [Example 9.3, 2-phenyl-N-(4-{3-[4-(pyridin-3-ylmethyl)piperazin-1-yl]quinoxalin-6-yl}phenyl)propanamide]

IC50: 3000 nM
Structure (SMILES): O=C(Nc1ccc(-c2ccc3ncc(N4CCN(c5ccncc5)CC4)nc3c2)cc1)NC1CC1 [Example 8.3, 1-cyclopropyl-3-(4-{3-[4-(pyridin-4-yl)piperazin-1-yl]quinoxalin-6-yl}phenyl)urea]

IC50: 1710 nM
Structure (SMILES): O=C(CC1CC1)Nc1ccc(-c2ccc3ncc(N4CCN(c5ccncc5)CC4)nc3c2)cc1 [Example 7.7, 2-cyclopropyl-N-(4-{3-[4-(pyridin-4-yl)piperazin-1-yl]quinoxalin-6-yl}phenyl)acetamide]

IC50: 1430 nM
Structure (SMILES): O=C(CCc1ccccc1)Nc1ccc(-c2ccc3ncc(N4CCN(c5ccncc5)CC4)nc3c2)cc1 [Example 7.4, 3-phenyl-N-(4-{3-[4-(pyridin-4-yl)piperazin-1-yl]quinoxalin-6-yl}phenyl)propanamide]

IC50: 2560 nM
Structure (SMILES): CC(C(=O)Nc1ccc(-c2ccc3ncc(N4CCN(c5ccncc5)CC4)nc3c2)cc1)c1ccccc1 (stereo not drawn) [Example 7.3, 2-phenyl-N-(4-{3-[4-(pyridin-4-yl)piperazin-1-yl]quinoxalin-6-yl}phenyl)propanamide]

IC50: 3000 nM
Structure (SMILES): O=C(Cc1ccccc1)Nc1ccc(-c2ccc3ncc(N4CCN(Cc5cccnc5)CC4)nc3c2)cc1 [Example 9.1, 2-phenyl-N-{4-[3-(4-pyridin-3-ylmethyl-piperazin-1-yl)-quinoxalin-6-yl]-phenyl}-acetamide]

IC50: 3930 nM
Structure (SMILES): O=C(Nc1ccc(-c2ccc3ncc(N4CCOCC4)nc3c2)cc1)Nc1cccnc1 [Example 6.8, 1-{4-[3-(morpholin-4-yl)quinoxalin-6-yl]phenyl}-3-pyridin-3-ylurea]
